According to patent US7339063B2, “Quinolyl organic germanium ester and the synthesis method thereof” (Changchun Institute of Applied Chemistry Chinese Academy of …, priority 2004, dated 2008):
Where two headings read alike, the source gives them in different places. Marks after values point to notes of the source that are not given here.

Tested on: PC-3M prostate cancer cell line
Conditions: for inhibition fraction at the given concentration: PC-3M proliferation
Excerpt: Cytotoxicity of Quinolyl Germanyl Propionate Sesquioxide (a) and Quinolyl Germanyl-α-methyl Propionate Sesquioxide (b) Against PC-3M Prostate Cancer Cell Line
The only difference of these two compounds is with or without the methyl group in the linking chain of the Germanium and quinoline.

Row | Substance | inhibition fraction at the given concentration (10 μM, 24 h) | inhibition fraction at the given concentration (10 μM, 48 h) | inhibition fraction at the given concentration (10 μM, 72 h) | inhibition fraction at the given concentration (30 μM, 24 h) | inhibition fraction at the given concentration (30 μM, 48 h) | inhibition fraction at the given concentration (30 μM, 72 h) | inhibition fraction at the given concentration (60 μM, 24 h) | inhibition fraction at the given concentration (60 μM, 48 h) | inhibition fraction at the given concentration (60 μM, 72 h) | IC50 relative to that of Compound (b) (PC-3M, MTT method) | IC50 (PC-3M, measured by MTT method)
1 | Quinolyl Germanyl-α-methyl Propionate Sesquioxide [Compound (b)] | 0.09 | 0.32 | 0.58 | 0.30 | 0.45 | 0.69 | 0.20 | 0.43 | 0.67 | – | –
2 | Quinolyl Germanyl Propionate Sesquioxide [Compound (a)] | 0.34** | 0.69 | 0.62 | 0.48 | 0.74 | 0.74 | 0.50 | 0.74 | 0.78 | three fold lower | 10 µM
